Activity calls are given as the source filed them. How the calls were made is not given here.
System: CCRIS mutagenicity, Ames/micronucleus/aberration tests
Assay: CCRIS mutagenicity studies
[1] = Test System: AMES SALMONELLA TYPHIMURIUM, Strain/Indicator: TA98, Metabolic Activation: NONE, Method: PREINCUBATION
[2] = Test System: AMES SALMONELLA TYPHIMURIUM, Strain/Indicator: TA100, Metabolic Activation: NONE, Method: PREINCUBATION
[3] = Test System: AMES SALMONELLA TYPHIMURIUM, Strain/Indicator: TA1535, Metabolic Activation: NONE, Method: PREINCUBATION

Measured: mutagenic call

OC1C2(Cl)C3(Cl)C4(Cl)C(Cl)(Cl)C5(Cl)C3(Cl)C1(Cl)C5(Cl)C24Cl (configuration not stated)
inactive: End Point: IN VITRO CHROMOSOMAL ABERRATIONS, Test System: CHINESE HAMSTER OVARY CELLS, Metabolic Activation: NONE inactive; negative | Test System: AMES SALMONELLA TYPHIMURIUM, Strain/Indicator: TA98, Metabolic Activation: HAMSTER, LIVER, S-9, AROCLOR 1254 (10%), Method: PREINCUBATION inactive; negative | [1] inactive; negative | Test System: AMES SALMONELLA TYPHIMURIUM, Strain/Indicator: TA98, Metabolic Activation: RAT, LIVER, S-9, AROCLOR 1254 (10%), Method: PREINCUBATION inactive; negative | Test System: AMES SALMONELLA TYPHIMURIUM, Strain/Indicator: TA100, Metabolic Activation: HAMSTER, LIVER, S-9, AROCLOR 1254 (10%), Method: PREINCUBATION inactive; negative | [2] inactive; negative | Test System: AMES SALMONELLA TYPHIMURIUM, Strain/Indicator: TA100, Metabolic Activation: RAT, LIVER, S-9, AROCLOR 1254 (10%), Method: PREINCUBATION inactive; negative | Test System: AMES SALMONELLA TYPHIMURIUM, Strain/Indicator: TA1535, Metabolic Activation: HAMSTER, LIVER, S-9, AROCLOR 1254 (10%), Method: PREINCUBATION inactive; negative | [3] inactive; negative | Test System: AMES SALMONELLA TYPHIMURIUM, Strain/Indicator: TA1535, Metabolic Activation: RAT, LIVER, S-9, AROCLOR 1254 (10%), Method: PREINCUBATION inactive; negative | Test System: AMES SALMONELLA TYPHIMURIUM, Strain/Indicator: TA1537, Metabolic Activation: HAMSTER, LIVER, S-9, AROCLOR 1254 (10%), Method: PREINCUBATION inactive; negative | Test System: AMES SALMONELLA TYPHIMURIUM, Strain/Indicator: TA1537, Metabolic Activation: NONE, Method: PREINCUBATION inactive; negative | Test System: AMES SALMONELLA TYPHIMURIUM, Strain/Indicator: TA1537, Metabolic Activation: RAT, LIVER, S-9, AROCLOR 1254 (10%), Method: PREINCUBATION inactive; negative

CN[C@@H]1[C@@H](O)[C@@H](O[C@@H]2[C@@H](O)[C@H](O[C@H]3O[C@H](CN)[C@@H](O)[C@H](O)[C@H]3O)[C@@H](N)C[C@H]2NC(=O)[C@@H](O)CN)OC[C@]1(C)O
inactive: [1] inactive; negative | [2] inactive; negative | [3] inactive; negative | Test System: E. COLI, Strain/Indicator: WP2 UVRA, Metabolic Activation: NONE, Method: PREINCUBATION inactive; negative
